In US12077503B2, “Substituted cyclic amides and their use as herbicides” (FMC CORPORATION, priority 2015, dated 2024):

Key:
Assay type in all cases: in vivo
[1] = test system: velvetleaf (Abutilon theophrasti); test: Test G Post-Emergence Protocol; conditions: Abutilon theophrasti, post-emergence, 312 h; for pest or weed control at 15.625 g/ha: 15.625 g ai/ha, evaluated after 13 days (100=total damage to plant; 0=no damage to plant), read-out: Velvetleaf damage rating; for pest or weed control at 62.5 g/ha: 62.5 g ai/ha, read-out: Velvetleaf damage rating (100=total damage to plant; 0=no damage to plant); for pest or weed control at 62.5 g/ha / pest or weed control at 250 g/ha: evaluated after 13 days; for pest or weed control at 250 g/ha: 250 g ai/ha, read-out: damage to plant, Velvetleaf (100=total damage to plant; 0=no damage to plant)
Method in brief: (§1)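 A glasshouse post-emergence test: 8-day-old plants sprayed at 15.625, 62.5 or 250 g/ha, then grown at 24/16 °C day/night with 14 h light and 65% humidity. Damage rated 13 days later, 0–100.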

[2] = test system: ivy-leaved morning glory (Ipomoea hederacea); test: Test G Post-Emergence Protocol; conditions: Ipomoea, post-emergence, 312 h; for pest or weed control at 15.625 g/ha: 15.625 g ai/ha, evaluated after 13 days (100=total damage to plant; 0=no damage to plant), read-out: Morningglory, Ivy-leaved damage rating; for pest or weed control at 62.5 g/ha: 62.5 g ai/ha, read-out: Morningglory, Ivy-leaved damage rating (100=total damage to plant; 0=no damage to plant); for pest or weed control at 62.5 g/ha / pest or weed control at 250 g/ha: evaluated after 13 days; for pest or weed control at 250 g/ha: 250 g ai/ha, read-out: damage to plant, Morningglory, Ivy-leaved (100=total damage to plant; 0=no damage to plant)
Method in brief: as §1

corn (Zea mays) [3] = test: Test G Post-Emergence Protocol; conditions: Zea mays, post-emergence, 312 h; for plant injury at 15.625 g/ha: 15.625 g ai/ha, evaluated after 13 days (100=total damage to plant; 0=no damage to plant), read-out: Corn damage rating; for plant injury at 62.5 g/ha: 62.5 g ai/ha, read-out: Corn damage rating (100=total damage to plant; 0=no damage to plant); for plant injury at 62.5 g/ha / plant injury at 250 g/ha: evaluated after 13 days; for plant injury at 250 g/ha: 250 g ai/ha, read-out: damage to plant, Corn (100=total damage to plant; 0=no damage to plant)
Method in brief: as §1

[4] = test system: barnyardgrass (Echinochloa crus-galli); test: Test G Post-Emergence Protocol; conditions: Echinochloa crus-galli, post-emergence, 312 h; for pest or weed control at 15.625 g/ha: 15.625 g ai/ha, evaluated after 13 days (100=total damage to plant; 0=no damage to plant), read-out: Barnyardgrass damage rating; for pest or weed control at 62.5 g/ha: 62.5 g ai/ha, read-out: Barnyardgrass damage rating (100=total damage to plant; 0=no damage to plant); for pest or weed control at 62.5 g/ha / pest or weed control at 250 g/ha: evaluated after 13 days; for pest or weed control at 250 g/ha: 250 g ai/ha, read-out: damage to plant, Barnyardgrass (100=total damage to plant; 0=no damage to plant)
Method in brief: as §1

[5] = test system: redroot pigweed (Amaranthus retroflexus); test: Test G Post-Emergence Protocol; conditions: Amaranthus retroflexus, post-emergence, 312 h; for pest or weed control at 15.625 g/ha: 15.625 g ai/ha, evaluated after 13 days (100=total damage to plant; 0=no damage to plant), read-out: Pigweed, Redroot damage rating; for pest or weed control at 62.5 g/ha: 62.5 g ai/ha, read-out: Pigweed, Redroot damage rating (100=total damage to plant; 0=no damage to plant); for pest or weed control at 62.5 g/ha / pest or weed control at 250 g/ha: evaluated after 13 days; for pest or weed control at 250 g/ha: 250 g ai/ha, read-out: damage to plant, Pigweed, Redroot (100=total damage to plant; 0=no damage to plant)
Method in brief: as §1

[6] = test system: giant foxtail (Setaria faberi); test: Test G Post-Emergence Protocol; conditions: Setaria faberi, post-emergence, 312 h; for pest or weed control at 15.625 g/ha: 15.625 g ai/ha, evaluated after 13 days (100=total damage to plant; 0=no damage to plant), read-out: Foxtail, Giant damage rating; for pest or weed control at 62.5 g/ha: 62.5 g ai/ha, read-out: Foxtail, Giant damage rating (100=total damage to plant; 0=no damage to plant); for pest or weed control at 62.5 g/ha / pest or weed control at 250 g/ha: evaluated after 13 days; for pest or weed control at 250 g/ha: 250 g ai/ha, read-out: damage to plant, Foxtail, Giant (100=total damage to plant; 0=no damage to plant)
Method in brief: as §1

[7] = test system: velvetleaf (Abutilon theophrasti); test: Test G Pre-Emergence Protocol; conditions: Abutilon theophrasti, pre-emergence, 312 h, evaluated after 13 days; for pest or weed control at 15.625 g/ha: 15.625 g ai/ha; for pest or weed control at 15.625 g/ha / pest or weed control at 250 g/ha: read-out: Velvetleaf damage rating (100=total damage to plant; 0=no damage to plant); for pest or weed control at 62.5 g/ha: 62.5 g ai/ha, 100=total damage to plant, 0=no damage to plant, read-out: plant damage rating, Velvetleaf; for pest or weed control at 250 g/ha: 250 g ai/ha
Method in brief: (§2)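 One day after sowing, pots are treated with a spray of test compound formulated in acetone/water 50:50 plus 0.5% Tween 20, giving 15.625, 62.5 or 250 g/ha. Evaluation on a 0–100 damage scale follows 13 days of glasshouse growth.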

[8] = test system: ivy-leaved morning glory (Ipomoea hederacea); test: Test G Pre-Emergence Protocol; conditions: Ipomoea, pre-emergence, 312 h, evaluated after 13 days; for pest or weed control at 15.625 g/ha: 15.625 g ai/ha, read-out: Morning-glory, Ivy-leaved damage rating (100=total damage to plant; 0=no damage to plant); for pest or weed control at 62.5 g/ha: 62.5 g ai/ha, 100=total damage to plant, 0=no damage to plant, read-out: plant damage rating, Morningglory, Ivy-leaved; for pest or weed control at 250 g/ha: 250 g ai/ha, read-out: Morningglory, Ivy-leaved damage rating (100=total damage to plant; 0=no damage to plant)
Method in brief: as §2

corn (Zea mays) [9] = test: Test G Pre-Emergence Protocol; conditions: Zea mays, pre-emergence, 312 h, evaluated after 13 days; for plant injury at 15.625 g/ha: 15.625 g ai/ha; for plant injury at 15.625 g/ha / plant injury at 250 g/ha: read-out: Corn damage rating (100=total damage to plant; 0=no damage to plant); for plant injury at 62.5 g/ha: 62.5 g ai/ha, 100=total damage to plant, 0=no damage to plant, read-out: plant damage rating, Corn; for plant injury at 250 g/ha: 250 g ai/ha
Method in brief: as §2

[10] = test system: barnyardgrass (Echinochloa crus-galli); test: Test G Pre-Emergence Protocol; conditions: Echinochloa crus-galli, pre-emergence, 312 h, evaluated after 13 days; for pest or weed control at 15.625 g/ha: 15.625 g ai/ha, read-out: Barnyard grass damage rating (100=total damage to plant; 0=no damage to plant); for pest or weed control at 62.5 g/ha: 62.5 g ai/ha, 100=total damage to plant, 0=no damage to plant, read-out: plant damage rating, Barnyardgrass; for pest or weed control at 250 g/ha: 250 g ai/ha, read-out: Barnyardgrass damage rating (100=total damage to plant; 0=no damage to plant)
Method in brief: as §2

[11] = test system: redroot pigweed (Amaranthus retroflexus); test: Test G Pre-Emergence Protocol; conditions: Amaranthus retroflexus, pre-emergence, 312 h, evaluated after 13 days; for pest or weed control at 15.625 g/ha: 15.625 g ai/ha; for pest or weed control at 15.625 g/ha / pest or weed control at 250 g/ha: read-out: Pigweed, Redroot damage rating (100=total damage to plant; 0=no damage to plant); for pest or weed control at 62.5 g/ha: 62.5 g ai/ha, 100=total damage to plant, 0=no damage to plant, read-out: plant damage rating, Pigweed, Redroot; for pest or weed control at 250 g/ha: 250 g ai/ha
Method in brief: as §2

[12] = test system: giant foxtail (Setaria faberi); test: Test G Pre-Emergence Protocol; conditions: Setaria faberi, pre-emergence, 312 h, evaluated after 13 days; for pest or weed control at 15.625 g/ha: 15.625 g ai/ha; for pest or weed control at 15.625 g/ha / pest or weed control at 250 g/ha: read-out: Foxtail, Giant damage rating (100=total damage to plant; 0=no damage to plant); for pest or weed control at 62.5 g/ha: 62.5 g ai/ha, 100=total damage to plant, 0=no damage to plant, read-out: plant damage rating, Foxtail, Giant; for pest or weed control at 250 g/ha: 250 g ai/ha
Method in brief: as §2

CN1C[C@@H](c2ccc(C(F)(F)F)cc2)[C@H](C(=O)Nc2ccnc(F)c2)C1=O (racemic) [Compound 1529]
0%: pest or weed control at 15.625 g/ha [1] | pest or weed control at 62.5 g/ha [1] | pest or weed control at 250 g/ha [1] | pest or weed control at 15.625 g/ha [2] | pest or weed control at 62.5 g/ha [2] | pest or weed control at 250 g/ha [2] | plant injury at 15.625 g/ha (corn (Zea mays) [3]) | plant injury at 62.5 g/ha (corn (Zea mays) [3]) | plant injury at 250 g/ha (corn (Zea mays) [3]) | pest or weed control at 15.625 g/ha [4] | pest or weed control at 62.5 g/ha [4] | pest or weed control at 250 g/ha [4] | pest or weed control at 15.625 g/ha [5] | pest or weed control at 62.5 g/ha [5] | pest or weed control at 250 g/ha [5] | pest or weed control at 15.625 g/ha [6] | pest or weed control at 62.5 g/ha [6] | pest or weed control at 250 g/ha [6] | pest or weed control at 15.625 g/ha [7] | pest or weed control at 62.5 g/ha [7] | pest or weed control at 250 g/ha [7] | pest or weed control at 15.625 g/ha [8] | pest or weed control at 62.5 g/ha [8] | pest or weed control at 250 g/ha [8] | plant injury at 15.625 g/ha (corn (Zea mays) [9]) | plant injury at 62.5 g/ha (corn (Zea mays) [9]) | plant injury at 250 g/ha (corn (Zea mays) [9]) | pest or weed control at 15.625 g/ha [10] | pest or weed control at 62.5 g/ha [10] | pest or weed control at 250 g/ha [10] | pest or weed control at 15.625 g/ha [11] | pest or weed control at 62.5 g/ha [11] | pest or weed control at 250 g/ha [11] | pest or weed control at 15.625 g/ha [12] | pest or weed control at 62.5 g/ha [12] | pest or weed control at 250 g/ha [12]

CN1C[C@@H](c2ccc(C(F)(F)F)cc2)[C@H](C(=O)Nc2ccnnc2)C1=O (racemic) [Compound 1518]
0%: pest or weed control at 15.625 g/ha [1] | pest or weed control at 62.5 g/ha [1] | pest or weed control at 250 g/ha [1] | pest or weed control at 15.625 g/ha [2] | pest or weed control at 62.5 g/ha [2] | pest or weed control at 250 g/ha [2] | plant injury at 15.625 g/ha (corn (Zea mays) [3]) | plant injury at 62.5 g/ha (corn (Zea mays) [3]) | plant injury at 250 g/ha (corn (Zea mays) [3]) | pest or weed control at 15.625 g/ha [4] | pest or weed control at 62.5 g/ha [4] | pest or weed control at 250 g/ha [4] | pest or weed control at 15.625 g/ha [5] | pest or weed control at 62.5 g/ha [5] | pest or weed control at 250 g/ha [5] | pest or weed control at 15.625 g/ha [6] | pest or weed control at 62.5 g/ha [6] | pest or weed control at 250 g/ha [6] | pest or weed control at 15.625 g/ha [7] | pest or weed control at 62.5 g/ha [7] | pest or weed control at 250 g/ha [7] | pest or weed control at 15.625 g/ha [8] | pest or weed control at 62.5 g/ha [8] | pest or weed control at 250 g/ha [8] | plant injury at 15.625 g/ha (corn (Zea mays) [9]) | plant injury at 62.5 g/ha (corn (Zea mays) [9]) | plant injury at 250 g/ha (corn (Zea mays) [9]) | pest or weed control at 15.625 g/ha [10] | pest or weed control at 62.5 g/ha [10] | pest or weed control at 250 g/ha [10] | pest or weed control at 15.625 g/ha [11] | pest or weed control at 62.5 g/ha [11] | pest or weed control at 250 g/ha [11] | pest or weed control at 15.625 g/ha [12] | pest or weed control at 62.5 g/ha [12] | pest or weed control at 250 g/ha [12]
